# According to patent publication US20250026766A1, “Thiazolopyridyl Amide Derivatives as DNA Polymerase Theta Inhibitors” (BeiGene, Ltd., priority 2022, published 2025):
# Molecular target: Pol Theta (1-894) (Homo sapiens (Human), UniProt O75417)
# Assay: Biochemical Pol Theta (1-894) ATPase IC50 assay (ADP-Glo, ssDNA substrate)
# Conditions: ADP-Glo assay with ssDNA substrate, room temperature
# Summary of the method: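 His-tagged human Pol Theta 1-894 from Sf9 baculovirus cells, 2× enzyme solution at 12.5 nM, assayed with ssDNA substrate at room temperature in 40 mM Tris pH 7.5, 20 mM MgCl2, 1 mM DTT, 0.01% BSA, 0.05% Tween-20.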
# Pol Theta (1-894), sequence (O75417 1-894): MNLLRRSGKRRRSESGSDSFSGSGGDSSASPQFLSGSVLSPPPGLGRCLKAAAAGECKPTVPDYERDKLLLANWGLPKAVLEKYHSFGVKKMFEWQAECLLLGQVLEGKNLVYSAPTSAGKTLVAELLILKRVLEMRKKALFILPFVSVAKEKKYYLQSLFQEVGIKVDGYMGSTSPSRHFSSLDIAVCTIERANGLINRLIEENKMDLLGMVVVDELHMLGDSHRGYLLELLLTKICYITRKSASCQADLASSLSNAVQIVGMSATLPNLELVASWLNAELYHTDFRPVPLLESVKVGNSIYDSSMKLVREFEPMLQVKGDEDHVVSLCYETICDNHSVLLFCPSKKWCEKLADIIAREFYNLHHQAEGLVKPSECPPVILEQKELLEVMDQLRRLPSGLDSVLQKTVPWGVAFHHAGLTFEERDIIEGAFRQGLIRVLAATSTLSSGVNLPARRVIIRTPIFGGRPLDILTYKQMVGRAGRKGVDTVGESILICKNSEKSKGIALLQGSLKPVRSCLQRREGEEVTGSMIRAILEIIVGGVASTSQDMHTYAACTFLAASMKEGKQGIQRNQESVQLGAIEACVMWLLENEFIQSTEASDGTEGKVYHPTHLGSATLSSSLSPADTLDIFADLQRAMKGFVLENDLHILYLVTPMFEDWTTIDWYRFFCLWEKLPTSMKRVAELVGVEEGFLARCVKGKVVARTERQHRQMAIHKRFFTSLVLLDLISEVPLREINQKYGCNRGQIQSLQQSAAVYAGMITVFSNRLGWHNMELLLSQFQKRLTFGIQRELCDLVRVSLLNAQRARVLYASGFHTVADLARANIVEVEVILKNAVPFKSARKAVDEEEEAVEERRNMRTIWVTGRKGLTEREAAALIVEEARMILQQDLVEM
row,SMILES,IC50 [µM]
1,"COc1ccc(C#N)cc1-c1cc(C)ncc1C(=O)Nc1nc2ccc(C3CCOC3)nc2s1 (stereo not shown) [Example 127, 4-(5-cyano-2-methoxyphenyl)-6-methyl-N-(5-(tetrahydrofuran-3-yl)thiazolo[5,4-b]pyridin-2-yl)nicotinamide]",0.035
2,"COc1ccccc1-c1cnncc1C(=O)Nc1nc2ccc(Oc3ccc(Cl)cc3F)nc2s1 [Example 155, N-(5-(4-chloro-2-fluorophenoxy)thiazolo[5,4-b]pyridin-2-yl)-5-(2-methoxyphenyl)pyridazine-4-carboxamide]",0.073
3,"COc1ccc(C#N)cc1-c1cc(C)ncc1C(=O)Nc1nc2ccc(-c3ccc(N(C)S(C)(=O)=O)c(C)c3)nc2s1 [Example 89, 4-(5-cyano-2-methoxyphenyl)-6-methyl-N-(5-(3-methyl-4-(N-methylmethylsulfonamido)phenyl)thiazolo[5,4-b]pyridin-2-yl)nicotinamide]",0.023
4,"COc1ccccc1-n1cncc1C(=O)Nc1nc2ccc(-c3ccc(Cl)cc3)nc2s1 [Example 12, N-(5-(4-chlorophenyl)thiazolo[5,4-b]pyridin-2-yl)-1-(2-methoxyphenyl)-1H-imidazole-5-carboxamide]",0.324
5,"COc1cc(C#N)ccc1-c1ccc2nc(NC(=O)c3cnncc3-c3ccccc3OC)sc2n1 [Example 119, N-(5-(4-cyano-2-methoxyphenyl)thiazolo[5,4-b]pyridin-2-yl)-5-(2-methoxyphenyl)pyridazine-4-carboxamide]",0.0052
6,"COc1ccccc1-c1cc(C)ncc1C(=O)Nc1nc2ccc(-c3ccc(Cl)cc3)nc2s1 [Example 14, N-(5-(4-chlorophenyl)thiazolo[5,4-b]pyridin-2-yl)-4-(2-methoxyphenyl)-6-methylnicotinamide]",0.143
7,"COc1ccccc1-c1cnncc1C(=O)Nc1nc2ccc(-c3c(C)cc(Cl)cc3C)nc2s1 [Example 101, N-(5-(4-chloro-2,6-dimethylphenyl)thiazolo[5,4-b]pyridin-2-yl)-5-(2-methoxyphenyl)pyridazine-4-carboxamide]",0.035
8,"COc1ccccc1-c1cc(C)ncc1C(=O)Nc1nc2ccc(-c3ccc(C#N)cc3)nc2s1 [Example 72, N-(5-(4-cyanophenyl)thiazolo[5,4-b]pyridin-2-yl)-4-(2-methoxyphenyl)-6-methylnicotinamide]",0.059
9,"COc1ccccc1-c1cnncc1C(=O)Nc1nc2ccc(-c3ccc(C#N)nc3)nc2s1 [Example 144, N-(5-(6-cyanopyridin-3-yl)thiazolo[5,4-b]pyridin-2-yl)-5-(2-methoxyphenyl)pyridazine-4-carboxamide]",0.011
10,"COc1ccc(C#N)cc1-c1cc(C)ncc1C(=O)Nc1nc2ccc(-c3ccc(N4CCCC4=O)cc3)nc2s1 [Example 45, 4-(5-cyano-2-methoxyphenyl)-6-methyl-N-(5-(4-(2-oxopyrrolidin-1-yl)phenyl)thiazolo[5,4-b]pyridin-2-yl)nicotinamide]",0.032
11,"COc1ccccc1-c1cnncc1C(=O)Nc1nc2ccc(-c3ccc(NC(C)=O)c(F)c3)nc2s1 [Example 142, N-(5-(4-acetamido-3-fluorophenyl)thiazolo[5,4-b]pyridin-2-yl)-5-(2-methoxyphenyl)pyridazine-4-carboxamide]",0.0054
12,"COc1ccccc1-c1cnncc1C(=O)Nc1nc2ccc(-c3c(C)cc(C#N)cc3C)nc2s1 [Example 148, N-(5-(4-cyano-2,6-dimethylphenyl)thiazolo[5,4-b]pyridin-2-yl)-5-(2-methoxyphenyl)pyridazine-4-carboxamide]",0.0084
13,"COc1ccccc1-c1cnncc1C(=O)Nc1nc2ccc(-c3ccc(C(=O)N(C)C)cc3)nc2s1 [Example 92, N-(5-(4-(dimethylcarbamoyl)phenyl)thiazolo[5,4-b]pyridin-2-yl)-5-(2-methoxyphenyl)pyridazine-4-carboxamide]",0.016
14,"COc1ccc(C#N)cc1-c1cc(C)ncc1C(=O)Nc1nc2ccc(-c3ccc(C4CC4)cc3)nc2s1 [Example 20, 4-(5-cyano-2-methoxyphenyl)-N-(5-(4-cyclopropylphenyl)thiazolo[5,4-b]pyridin-2-yl)-6-methylnicotinamide]",0.054
15,"COc1ccc(C#N)cc1-c1cc(CO)ncc1C(=O)Nc1nc2ccc(-c3ccc(C#N)cc3C)nc2s1 [Example 176, 4-(5-cyano-2-methoxyphenyl)-N-(5-(4-cyano-2-methylphenyl)thiazolo[5,4-b]pyridin-2-yl)-6-(hydroxymethyl)nicotinamide]",0.0091
16,"COc1ccc(C#N)cc1-c1cnncc1C(=O)Nc1nc2ccc(-c3ccc(NC(C)=O)cc3)nc2s1 [Example 23, N-(5-(4-acetamidophenyl)thiazolo[5,4-b]pyridin-2-yl)-5-(5-cyano-2-methoxyphenyl)pyridazine-4-carboxamide]",0.022
17,"COc1ccc(C(F)(F)F)cc1-c1cc(C)ncc1C(=O)Nc1nc2ccc(-c3ccc(NC(C)=O)cc3)nc2s1 [Example 24, N-(5-(4-acetamidophenyl)thiazolo[5,4-b]pyridin-2-yl)-4-(2-methoxy-5-(trifluoromethyl)phenyl)-6-methylnicotinamide]",0.062

row,SMILES,IC50 [µM]
1,"CCOc1ccc2nc(NC(=O)c3cnncc3-c3ccccc3OC)sc2n1 [Example 95, N-(5-ethoxythiazolo[5,4-b]pyridin-2-yl)-5-(2-methoxyphenyl)pyridazine-4-carboxamide]",0.072
2,"COc1ccc(C#N)cc1-c1cc(C(F)(F)F)ncc1C(=O)Nc1nc2ccc(-c3ccc(C#N)cc3)nc2s1 [Example 37, 4-(5-cyano-2-methoxyphenyl)-N-(5-(4-cyanophenyl)thiazolo[5,4-b]pyridin-2-yl)-6-(trifluoromethyl)nicotinamide]",0.151
3,"COc1ccc(C#N)cc1-c1ccncc1C(=O)Nc1nc2ccc(-c3ccc(C#N)cc3)nc2s1 [Example 38, 4-(5-cyano-2-methoxyphenyl)-N-(5-(4-cyanophenyl)thiazolo[5,4-b]pyridin-2-yl)nicotinamide]",0.011
4,"COc1ccccc1-c1cnncc1C(=O)Nc1nc2ccc(-c3ccc(N(C)C(C)=O)cc3)nc2s1 [Example 56, 5-(2-methoxyphenyl)-N-(5-(4-(N-methylacetamido)phenyl)thiazolo[5,4-b]pyridin-2-yl)pyridazine-4-carboxamide]",0.015
5,"COc1ccccc1-c1cnncc1C(=O)Nc1nc2ccc(C(C)c3ccc(Cl)cc3)nc2s1 (stereo not shown) [Example 138, N-(5-(1-(4-chlorophenyl)ethyl)thiazolo[5,4-b]pyridin-2-yl)-5-(2-methoxyphenyl)pyridazine-4-carboxamide]",0.263
6,"COc1cccc(F)c1-c1cc(C)ncc1C(=O)Nc1nc2ccc(-c3ccc(C#N)cc3)nc2s1 [Example 104, N-(5-(4-cyanophenyl)thiazolo[5,4-b]pyridin-2-yl)-4-(2-fluoro-6-methoxyphenyl)-6-methylnicotinamide]",0.0065
7,"COc1ccc(C#N)cc1-c1cc(CC#N)ncc1C(=O)Nc1nc2ccc(-c3ccc(C#N)cc3)nc2s1 [Example 34, 4-(5-cyano-2-methoxyphenyl)-6-(cyanomethyl)-N-(5-(4-cyanophenyl)thiazolo[5,4-b]pyridin-2-yl)nicotinamide]",0.016
8,"COc1c(F)cccc1-c1cc(C)ncc1C(=O)Nc1nc2ccc(-c3ccc(C#N)cc3)nc2s1 [Example 75, N-(5-(4-cyanophenyl)thiazolo[5,4-b]pyridin-2-yl)-4-(3-fluoro-2-methoxyphenyl)-6-methylnicotinamide]",0.032
9,"COc1ccc(C#N)cc1-c1cc(C)ncc1C(=O)Nc1nc2ccc(-c3ccc(NC(C)=O)cc3)nc2s1 [Example 17, N-(5-(4-acetamidophenyl)thiazolo[5,4-b]pyridin-2-yl)-4-(5-cyano-2-methoxyphenyl)-6-methylnicotinamide]",0.0081
10,"COc1ccc(C#N)cc1-c1cc(C)ncc1C(=O)Nc1nc2ccc(-c3ccc(C(=O)N(C)C)cc3)nc2s1 [Example 86, 4-(5-cyano-2-methoxyphenyl)-N-(5-(4-(dimethylcarbamoyl)phenyl)thiazolo[5,4-b]pyridin-2-yl)-6-methylnicotinamide]",0.0074
11,"COc1cccc(F)c1-c1nc(C#N)ccc1C(=O)Nc1nc2ccc(-c3ccc(Cl)cc3)nc2s1 [Example 10, N-(5-(4-chlorophenyl)thiazolo[5,4-b]pyridin-2-yl)-6-cyano-2-(2-fluoro-6-methoxyphenyl)nicotinamide]",0.149
12,"COc1ccccc1-c1cnncc1C(=O)Nc1nc2ccc(-c3ccc(Cl)cc3Cl)nc2s1 [Example 117, N-(5-(2,4-dichlorophenyl)thiazolo[5,4-b]pyridin-2-yl)-5-(2-methoxyphenyl)pyridazine-4-carboxamide]",0.012
13,"COc1ccccc1-c1nc(C#N)ccc1C(=O)Nc1nc2ccc(-c3ccc(Cl)cc3)nc2s1 [Example 6, N-(5-(4-chlorophenyl)thiazolo[5,4-b]pyridin-2-yl)-6-cyano-2-(2-methoxyphenyl)nicotinamide]",0.359
14,"COc1ccccc1-c1cnncc1C(=O)Nc1nc2ccc(-c3ccc(C(=O)N4CCOCC4)cc3)nc2s1 [Example 103, 5-(2-methoxyphenyl)-N-(5-(4-(morpholine-4-carbonyl)phenyl)thiazolo[5,4-b]pyridin-2-yl)pyridazine-4-carboxamide]",0.083
15,"COc1ccccc1-c1cnncc1C(=O)Nc1nc2ccc(-c3ccc(C(=O)N4CCCC4)cc3)nc2s1 [Example 88, 5-(2-methoxyphenyl)-N-(5-(4-(pyrrolidine-1-carbonyl)phenyl)thiazolo[5,4-b]pyridin-2-yl)pyridazine-4-carboxamide]",0.05
16,"COc1ccc(C#N)cc1-c1cc(C)ncc1C(=O)Nc1nc2ccc(-c3ccc([C@H](C)C#N)cc3)nc2s1 [Example 177B, (S)-4-(5-cyano-2-methoxyphenyl)-N-(5-(4-(1-cyanoethyl)phenyl)thiazolo[5,4-b]pyridin-2-yl)-6-methylnicotinamide]",0.013
17,"COc1ccc(C#N)cc1-c1cc(C)ncc1C(=O)Nc1nc2ccc(-c3ccc(N4CCCC4=O)nc3)nc2s1 [Example 164, 4-(5-cyano-2-methoxyphenyl)-6-methyl-N-(5-(6-(2-oxopyrrolidin-1-yl)pyridin-3-yl)thiazolo[5,4-b]pyridin-2-yl)nicotinamide]",0.037
